Blank lines part the entries; values can stand above or below the molecule they belong to.
How the values were obtained:
[1] = system: T1, Human TLR7/8; assay: Human PBMC cell-based assay, RNA-Ig (SL4-Ig) stimulus, cytokine ELISA; details: Human PBMC IL-6 Inhibition (SL4-Ig Ligand); read-out: Human PBMC IC50
T1 construct: IC50; other: Hu PBMC; ligand RNA-Ig; analyte IL-6; analyte TNFα; ligand R848; IC50 against the RNA-Ig TLR7/8 stimulus; cytokine responses to RNA-Ig complexes in vitro; potency against the RNA-Ig TLR7/8 stimulus versus HCQ
Method: Briefly, 25 ml blood was diluted with 15 ml PBS (without Ca^2+, Mg^2+) in a 50 ml conical tube, and 12 ml Histopaque was underlaid using a spinal needle. Tubes were centrifuged for 45 minutes at 1200 rpm (350×g), and PBMC were collected from the buffy coat. Cells were then washed twice in PBS, and red blood cells were lysed by suspension in 5 ml ammonium chloride solution (1× Red Blood Cell Lysis Buffer, eBioscience) for 5 minutes at room temperature.
Antagonist compounds solubilized and serial diluted in 100% DMSO were added in triplicate to cells to yield a final concentration of 0.1% DMSO (v/v). Hydroxychloroquine (Acros Organics) solubilized and serial diluted in PBS was added in triplicate to cells. […] The resulting “RNA-Ig” stimulus was incubated at room temperature for 15-30 minutes before adding to cells. PBMC were incubated with the various TLR agonists for 20 hours at 37° C., 5% CO2. Cell culture supernatants were collected, and levels of various human cytokines were assessed as indicated by standard ELISA procedure according to the manufacturer's recommended protocol (BD Biosciences, Inc., San Diego, Calif.).

[2] = biological target: T2, Mouse TLR7 (Mus musculus, UniProt P58681); assay: Mouse spleen cell-based assay, R848 stimulus, IL-6 ELISA; details: Mouse Splenocyte IL-6 Inhibition (R848 Ligand); read-out: Mouse Splenocyte IC50
T2 construct: endogenous in cells; host or cells: female BALB/c mice, in vivo
T2 sequence (P58681 27-1050): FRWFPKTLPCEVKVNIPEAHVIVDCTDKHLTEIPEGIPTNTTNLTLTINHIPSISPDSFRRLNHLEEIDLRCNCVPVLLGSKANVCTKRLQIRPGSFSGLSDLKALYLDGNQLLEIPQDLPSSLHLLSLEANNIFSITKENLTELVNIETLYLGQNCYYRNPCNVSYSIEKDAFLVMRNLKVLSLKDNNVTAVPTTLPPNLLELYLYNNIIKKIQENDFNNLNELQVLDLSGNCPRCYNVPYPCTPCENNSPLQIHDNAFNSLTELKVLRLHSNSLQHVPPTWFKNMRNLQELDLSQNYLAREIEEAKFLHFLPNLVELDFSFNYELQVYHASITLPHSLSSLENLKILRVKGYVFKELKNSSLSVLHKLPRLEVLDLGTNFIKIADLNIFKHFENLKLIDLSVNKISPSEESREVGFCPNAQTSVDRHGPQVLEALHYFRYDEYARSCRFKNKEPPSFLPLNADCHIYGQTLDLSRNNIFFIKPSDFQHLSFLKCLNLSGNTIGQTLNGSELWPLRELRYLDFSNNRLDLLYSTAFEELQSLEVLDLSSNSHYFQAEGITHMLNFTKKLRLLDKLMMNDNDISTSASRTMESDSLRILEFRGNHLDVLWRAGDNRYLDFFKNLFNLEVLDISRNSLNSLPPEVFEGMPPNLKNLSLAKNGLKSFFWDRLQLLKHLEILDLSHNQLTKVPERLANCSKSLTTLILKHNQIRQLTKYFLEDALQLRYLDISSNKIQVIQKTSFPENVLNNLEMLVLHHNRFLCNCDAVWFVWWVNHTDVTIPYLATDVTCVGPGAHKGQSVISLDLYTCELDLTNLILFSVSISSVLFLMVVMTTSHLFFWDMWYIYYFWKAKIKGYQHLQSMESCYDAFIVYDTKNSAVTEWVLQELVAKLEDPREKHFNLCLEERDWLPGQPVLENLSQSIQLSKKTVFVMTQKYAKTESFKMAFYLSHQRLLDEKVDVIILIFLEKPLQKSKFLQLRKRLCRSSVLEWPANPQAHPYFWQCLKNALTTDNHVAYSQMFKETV
Method: Spleens were harvested from female BALB/c mice (Jackson Labs, Bar Harbor, Me.) euthanized by CO2. A single cell suspension was obtained by passing spleens through a 40 μm nylon cell strainer. Cells were washed twice with 50 ml PBS (Mediatech, Inc., Manassas, Va.) and red blood cells were lysed in 5 ml RBC Lysis buffer (eBioscience, Inc., San Diego, Calif.) for 5 minutes at room temperature. Cells were washed twice more in PBS and finally resuspended in supplemented RPMI-1640 at 2.5×10^6 cells/ml. Cells were plated at 100 μl/well (2.5×10^5 cells/well) in 96-well tissue culture treated plates (Falcon). Serial dilutions of compounds solubilized in 100% DMSO were added in triplicate to cells to yield a final concentration of 0.1% DMSO. Cells were incubated with compound for 30 minutes at 37° C., 5% CO2 before adding 100 μl/well of 740 nM R848 (Resiquimod; GLSynthesis, Worcester, Mass.) in complete media for a final concentration of 370 nM R848. Cells were incubated for 20 hours at 37° C., 5% CO2. Culture supernatants were collected, and levels of IL-6 were assessed by standard ELISA procedure according to the manufacturer's recommended protocol (BD Biosciences, Inc., San Diego, Calif.).

[3] = biological target: T2, Mouse TLR7; assay: Short-term in vivo (STIV) assay: plasma IL-6 after s.c. R848
Method: Figure Legend: Female BALB/c mice were dosed by oral gavage with Vehicle alone (0.5% aqueous methyl-cellulose) or compound ER-892887 formulated in Vehicle at 100 mg/kg or 300 mg/kg. At 13 or 24 hours following oral dosing, mice were injected subcutaneously with 15 ug R848 to stimulate TLR7. Blood plasma was collected by cardiac puncture, and the IL-6 level at 1.5 hours after TLR7 stimulation was then assessed by standard ELISA procedure. Percent suppression indicated is relative to IL-6 induction following Vehicle control dosing. Statistical significance was determined by Mann-Whitney test.
To assess compound potency in vivo against mouse TLR7, a short-term in vivo (STIV) assay was utilized. Briefly, mice were orally dosed with compounds and at various time points afterwards were injected subcutaneously with agonist R848 to stimulate TLR7. The plasma IL-6 level following R848 stimulation was then measured by ELISA to assess compound potency and duration-of-action. […] Therefore, the activity of compounds in the STIV assay can be confidently attributed to their modulation of the TLR7 pathway. A single oral dose of ER-892887 at 300 mg/kg suppresses the R848/TLR7/IL-6 pathway in vivo by 80-90% for at least 24 hours (see FIG. 1).
Six to eight week old female BALB/c mice (Jackson Labs, Bar Harbor, Me.) were dosed by oral gavage in 200 ul volume with antagonist compounds formulated in 0.5% aqueous methyl-cellulose (Sigma, St. Louis, Mo.). At various time points afterwards, mice were injected subcutaneously (s.c.) in 100 ul volume with 15 ug R848 (Resiquimod; GLSynthesis, Worcester, Mass.) to stimulate TLR7. Blood plasma was collected by cardiac puncture, and levels of IL-6 at 1.5 hours after TLR7 stimulation were then assessed by standard ELISA procedure according to the manufacturer's recommended protocol (R&D Systems).

[4] = time point 6 hr, dose 33 mg/kg oral
[5] = time point 6 hr, dose 100 mg/kg oral
[6] = time point 6 hr, dose 300 mg/kg oral
[7] = time point 13 hr, dose 33 mg/kg oral
[8] = time point 13 hr, dose 100 mg/kg oral
[9] = time point 13 hr, dose 300 mg/kg oral
[10] = time point 24 hr, dose 100 mg/kg oral
[11] = time point 24 hr, dose 300 mg/kg oral

Molecule: 5-(3,4-dimethoxyphenyl)-2-(6-methyl-1,2,3,6-tetrahydropyridin-4-yl)-7-(trifluoromethyl)-4,5,6,7-tetrahydropyrazolo[1,5-a]pyrimidine hydrochloride and 5-(3,4-dimethoxyphenyl)-2-(2-methyl-1,2,3,6-tetrahydropyridin-4-yl)-7-(trifluoromethyl)-4,5,6,7-tetrahydropyrazolo[1,5-a]pyrimidine hydrochloride [ER-896993]
IC50 [1]: 38 nM

Molecule: COc1ccc(C2CC(C(F)F)n3nc(-c4ccc(C(=O)N5CCNCC5)cc4)cc3N2)cc1OC (racemic) [ER-894466]
IC50 [1]: 43 nM
IC50 [2]: 420 nM

Molecule: COc1ccc([C@@H]2C[C@H](C(F)(F)F)n3nc(C4CCNCC4)cc3N2)cc1OC [ER-885681]
IC50 [1]: 173 nM
% Suppression vs. Vehicle ([3]; time point 3 hr, dose 33 mg/kg oral): 90%
% Suppression vs. Vehicle ([3]; time point 3 hr, dose 100 mg/kg oral): 98%
% Suppression vs. Vehicle ([3]; time point 3 hr, dose 300 mg/kg oral): 99%
% Suppression vs. Vehicle [3, 4]: 42%
% Suppression vs. Vehicle [3, 5]: 81%
% Suppression vs. Vehicle [3, 6]: 96%
% Suppression vs. Vehicle [3, 7]: 0%
% Suppression vs. Vehicle [3, 8]: 7%
% Suppression vs. Vehicle [3, 9]: 50%

Molecule: COc1ccc([C@H]2C[C@@H](C(F)(F)F)n3nc(C4CCNCC4)cc3N2)cc1OC [ER-885682]
IC50 [1]: 357 nM

Molecule: COc1ccc(C2CC(C(F)(F)F)n3nc(C4CCNCC4)cc3N2)cc1OC (centres unmarked) [ER-887084]
IC50 [1]: 101 nM

Molecule: Cc1nn(C)cc1[C@@H]1C[C@H](C(F)(F)F)n2nc(-c3ccc4nn(C)cc4c3)cc2N1 [ER-893990]
IC50 [1]: 4460 nM
IC50 [2]: 3920 nM

Molecule: COc1ccc([C@@H]2C[C@H](C(F)F)n3nc(-c4ccc(C(=O)N5CCNCC5)cc4)cc3N2)cc1OC [ER-895302]
IC50 [1]: 25 nM
IC50 [2]: 120 nM
% Suppression vs. Vehicle [3, 4]: 93%
% Suppression vs. Vehicle [3, 5]: 99%
% Suppression vs. Vehicle [3, 6]: 99%
% Suppression vs. Vehicle [3, 7]: 14%
% Suppression vs. Vehicle [3, 8]: 16%
% Suppression vs. Vehicle [3, 9]: 91%
% Suppression vs. Vehicle ([3]; time point 24 hr, dose 33 mg/kg oral): 30%
% Suppression vs. Vehicle [3, 10]: 0%
% Suppression vs. Vehicle [3, 11]: 37%

Molecule: COc1ccc([C@H]2C[C@@H](C(F)F)n3nc(-c4ccc(C(=O)N5CCNCC5)cc4)cc3N2)cc1OC [ER-895303]
IC50 [1]: 23 nM
IC50 [2]: 270 nM
% Suppression vs. Vehicle [3, 4]: 92%
% Suppression vs. Vehicle [3, 7]: 0%
% Suppression vs. Vehicle [3, 8]: 18%
% Suppression vs. Vehicle [3, 9]: 90%
% Suppression vs. Vehicle [3, 10]: 0%
% Suppression vs. Vehicle [3, 11]: 60%

Molecule: COc1ccc(C2CC(C(F)(F)F)n3nc(-c4ccc(C(=O)NC5CCNC5)nc4)cc3N2)cc1OC (centres unmarked) [ER-895809]
IC50 [1]: 21 nM

Further lines, results first:

IC50 [1]: 27 nM
Molecule: COc1ccc(C2CC(C(F)(F)F)n3nc(-c4ccc(C(=O)NC5CCNC5)nc4)cc3N2)cc1OC (centres unmarked) [ER-895810]

IC50 [1]: 111 nM
Molecule: COc1ccc(C2CC(C(F)(F)F)n3nc(-c4cccc(C(=O)NC5CCNC5)c4)cc3N2)cc1OC (centres unmarked) [ER-895811]

IC50 [1]: 64 nM
Molecule: COc1ccc(C2CC(C(F)(F)F)n3nc(-c4ccc(C(=O)N5CCNCC5)nc4)cc3N2)cc1OC (centres unmarked) [ER-896133]

IC50 [1]: 12 nM
Molecule: COc1ccc(C2CC(C(F)(F)F)n3nc(-c4ccc(C(=O)NC5CCNCC5)nc4)cc3N2)cc1OC (centres unmarked) [ER-896134]

IC50 [1]: 18 nM
Molecule: COc1ccc(C2CC(C(F)(F)F)n3nc(-c4ccc(C(=O)NC5CCCNC5)nc4)cc3N2)cc1OC (centres unmarked) [ER-896135]

IC50 [1]: 122 nM
Molecule: COc1ccc(C2CC(C(F)(F)F)n3nc(-c4cccc(C(=O)N5CCNCC5)c4)cc3N2)cc1OC (centres unmarked) [ER-896388]

IC50 [1]: 49 nM
Molecule: COc1ccc(C2CC(C(F)(F)F)n3nc(C(=O)N4CCNCC4)cc3N2)cc1OC (centres unmarked) [ER-896452]

— patent US9126999B2, “Tetrahydropyrazolopyrimidine compounds” (EISAI R&D MANAGEMENT CO., LTD., priority 2012, dated 2015)
